Consider 14 compounds from ChEMBL document CHEMBL1141145, “A chiral benzoquinolizine-2-carboxylic acid arginine salt active against vancomycin-resistant Staphylococcus aureus” (J Med Chem, 2005).

Data set [1] has as its system Staphylococcus aureus. Kind of data set: Minimum inhibitory concentration against methicillin susceptible Staphylococcus aureus after esterase action in rat serum. The data set is classed as functional.
Data set [2] concerns Mus musculus. Put plainly: Protection of mice infected with MRSA-32 cell suspension after oral administration of compound. The data set is classed as functional.
Data set [3] relates to Staphylococcus aureus. Kind of data set: Minimum inhibitory concentration against methicillin susceptible Staphylococcus aureus before esterase action in rat serum. Format: functional.
Data set [4] deals with Staphylococcus aureus. Kind of data set: Minimum inhibitory concentration against methicillin susceptible Staphylococcus aureus. Format: functional.
Data set [5] deals with DNA topoisomerase 4 subunit A (Staphylococcus aureus) (UniProt P0C1U9).
Data set [6] concerns the target DNA gyrase (Staphylococcus aureus) (UniProt P0A0K8+P20831).
For another data set, the system named is Enterococcus faecalis. Kind of data set: Minimum inhibitory concentration against Enterococcus faecalis ATCC 29212. Format: functional.
In data set [7] the test system is Mus musculus. Kind of data set: Efficacy against mice infected with MRSA-32 upon s.c. administration. The data set is classed as functional. Conditions: MRSA-32, sc.
Data set [8] deals with Mus musculus. Kind of data set: Efficacy against mice infected with MRSA-33 upon s.c. administration. Conditions: sc. The data set is classed as functional.
Data set [9] concerns Staphylococcus aureus. Put plainly: microbe, parasite or virus in culture.
The test system of a further data set is Streptococcus sanguinis. Put plainly: Minimum inhibitory concentration against Streptococcus sanguis ATCC 10556. Format: functional.
For data set [10], the system named is Staphylococcus aureus. Put plainly: Minimum inhibitory concentration against vancomycin-resistant Staphylococcus aureus (Hershey). The data set is classed as functional.
The test system of data set [11] is Staphylococcus aureus. Put plainly: microbe, parasite or virus in culture. This is another data set of the same source.
Data set [12] concerns Staphylococcus aureus. Kind of data set: microbe, parasite or virus in culture. This is another data set of the same source.
The test system of data set [13] is Staphylococcus saprophyticus. Put plainly: Minimum inhibitory concentration against Staphylococcus saprophyticus ATCC 15305. The data set is classed as functional.
A further data set concerns Streptococcus pyogenes. Kind of data set: Minimum inhibitory concentration against Streptococcus pyogenes ATCC 19615. The data set is classed as functional.
Data set [14] deals with Staphylococcus aureus. Kind of data set: Minimum inhibitory concentration against vancomycin intermediate Staphylococcus aureus MU 3. The data set is classed as functional.
A further data set concerns Streptococcus agalactiae. Put plainly: Minimum inhibitory concentration against Streptococcus agalactiae ATCC 13813. The data set is classed as functional.
The next data set deals with Phocaeicola vulgatus. Kind of data set: Minimum inhibitory concentration against Bacteroides vulgatus ATCC 29327. Format: functional.
For a further data set, the system named is Klebsiella pneumoniae. Kind of data set: Minimum inhibitory concentration against Klebsiella pneumoniae ATCC 10031. Format: functional.
The subject of data set [15] is Mus musculus. Put plainly: Efficacy against mice infected with Staphylococcus aureus ATCC 25923 upon s.c. administration. Format: functional. The note with it: sc.
The test system of data set [16] is Staphylococcus aureus. Put plainly: Minimum inhibitory concentration against Staphylococcus aureus ATCC 25923. The data set is classed as functional.
Data set [17] has as its system Staphylococcus aureus. Put plainly: Minimum inhibitory concentration against Vancomycin intermediate Staphylococcus aureus MU 50. The data set is classed as functional.
The subject of data set [18] is Staphylococcus haemolyticus. Kind of data set: Minimum inhibitory concentration against Staphylococcus haemolyticus ATCC 29970. The data set is classed as functional.
Data set [19] is described as follows: physchem.
Data set [20] is described as follows: physchem. The source holds these as a separate data set.
Data set [21] deals with Staphylococcus aureus. Kind of data set: Minimum inhibitory concentration against vancomycin intermediate Staphylococcus aureus MU 50. Format: functional.
The mark [22] stands for this setting: Mus musculus, MRSA-32, po, read-out: ED50.
The mark [23] stands for this setting: Staphylococcus aureus, read-out: MIC.

Values after ≈ are worked out from the molar mass of the structure shown.

Chain of DNA gyrase (Staphylococcus aureus) (P0A0K8 2-644 limits assumed): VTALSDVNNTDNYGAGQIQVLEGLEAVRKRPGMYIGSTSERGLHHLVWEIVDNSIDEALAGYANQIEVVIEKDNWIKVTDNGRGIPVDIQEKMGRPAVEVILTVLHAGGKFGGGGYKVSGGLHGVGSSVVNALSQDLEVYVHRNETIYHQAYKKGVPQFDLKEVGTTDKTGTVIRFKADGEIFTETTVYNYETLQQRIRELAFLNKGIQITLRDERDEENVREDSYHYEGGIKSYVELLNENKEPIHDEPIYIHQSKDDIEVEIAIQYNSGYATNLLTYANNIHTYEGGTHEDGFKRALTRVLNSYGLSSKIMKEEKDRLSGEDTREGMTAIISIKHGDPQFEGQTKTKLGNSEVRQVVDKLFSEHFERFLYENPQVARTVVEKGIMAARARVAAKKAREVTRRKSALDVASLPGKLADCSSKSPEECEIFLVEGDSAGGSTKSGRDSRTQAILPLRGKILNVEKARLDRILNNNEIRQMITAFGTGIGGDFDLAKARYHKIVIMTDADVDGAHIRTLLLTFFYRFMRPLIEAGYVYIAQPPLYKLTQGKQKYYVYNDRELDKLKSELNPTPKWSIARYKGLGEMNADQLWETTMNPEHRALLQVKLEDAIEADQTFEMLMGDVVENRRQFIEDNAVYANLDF
Chain of DNA gyrase (Staphylococcus aureus) (P20831 whole entry partner): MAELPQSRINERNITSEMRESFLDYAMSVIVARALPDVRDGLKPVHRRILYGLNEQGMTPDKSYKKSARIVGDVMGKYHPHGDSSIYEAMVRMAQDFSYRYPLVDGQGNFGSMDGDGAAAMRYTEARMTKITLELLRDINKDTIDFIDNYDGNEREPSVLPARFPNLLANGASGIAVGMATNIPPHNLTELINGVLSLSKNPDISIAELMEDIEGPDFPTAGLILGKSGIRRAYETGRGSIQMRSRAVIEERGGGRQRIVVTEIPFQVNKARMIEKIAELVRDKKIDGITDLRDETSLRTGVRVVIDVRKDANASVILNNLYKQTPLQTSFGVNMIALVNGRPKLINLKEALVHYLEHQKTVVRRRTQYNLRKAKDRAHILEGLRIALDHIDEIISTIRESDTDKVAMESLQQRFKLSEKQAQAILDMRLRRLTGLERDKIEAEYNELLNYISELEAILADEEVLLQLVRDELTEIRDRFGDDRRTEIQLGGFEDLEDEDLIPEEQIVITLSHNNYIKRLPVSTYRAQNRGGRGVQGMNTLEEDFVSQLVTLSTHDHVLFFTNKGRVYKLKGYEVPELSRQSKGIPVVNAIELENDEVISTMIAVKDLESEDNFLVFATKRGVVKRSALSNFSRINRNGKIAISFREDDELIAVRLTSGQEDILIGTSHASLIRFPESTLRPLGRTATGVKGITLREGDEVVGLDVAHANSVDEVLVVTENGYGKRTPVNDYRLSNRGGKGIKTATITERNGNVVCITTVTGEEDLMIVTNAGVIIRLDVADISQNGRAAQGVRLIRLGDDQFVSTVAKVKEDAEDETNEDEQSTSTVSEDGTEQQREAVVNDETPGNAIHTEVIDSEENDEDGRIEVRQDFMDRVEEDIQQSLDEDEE
Chain of DNA topoisomerase 4 subunit A (Staphylococcus aureus) (P0C1U9 whole entry): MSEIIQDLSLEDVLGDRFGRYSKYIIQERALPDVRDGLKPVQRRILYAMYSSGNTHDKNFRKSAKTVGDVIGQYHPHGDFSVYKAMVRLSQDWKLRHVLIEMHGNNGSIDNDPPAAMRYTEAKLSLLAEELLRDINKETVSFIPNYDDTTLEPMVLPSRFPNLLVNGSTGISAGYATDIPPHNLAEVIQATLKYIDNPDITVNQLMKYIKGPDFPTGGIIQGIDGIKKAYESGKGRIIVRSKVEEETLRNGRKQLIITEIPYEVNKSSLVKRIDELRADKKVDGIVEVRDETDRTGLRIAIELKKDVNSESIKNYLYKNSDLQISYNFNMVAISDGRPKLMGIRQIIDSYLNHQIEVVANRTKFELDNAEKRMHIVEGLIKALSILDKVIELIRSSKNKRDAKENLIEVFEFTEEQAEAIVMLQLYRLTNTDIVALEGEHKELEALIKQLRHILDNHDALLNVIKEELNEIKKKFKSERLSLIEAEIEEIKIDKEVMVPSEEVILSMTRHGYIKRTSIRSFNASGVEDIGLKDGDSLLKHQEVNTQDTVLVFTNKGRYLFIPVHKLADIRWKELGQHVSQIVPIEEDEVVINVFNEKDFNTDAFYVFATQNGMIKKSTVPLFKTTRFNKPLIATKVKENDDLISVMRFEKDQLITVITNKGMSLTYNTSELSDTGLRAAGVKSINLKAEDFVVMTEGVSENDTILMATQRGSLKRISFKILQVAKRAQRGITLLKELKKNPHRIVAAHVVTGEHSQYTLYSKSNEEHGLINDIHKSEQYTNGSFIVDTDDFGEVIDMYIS

One may read the ED50 as the dose that gives a 50% effect, or the effect in half of the subjects. Take `C[C@H]1CCc2c(N3CCC(O)CC3)c(F)cc3c(=O)c(C(=O)OCCN4CCCC4)cn1c23`: the values for the MIC with Staphylococcus aureus [1] and in the data set with Staphylococcus aureus [3] were 0.06 µg/mL (≈ 0.131 µM) and 1 µg/mL (≈ 2.19 µM), respectively. The ED50 in the data set on Mus musculus [2] (setting [22]) is greater than 150 mg/kg.
Consider `C[C@H]1CCc2c(N3CCC(O)CC3)c(F)cc3c(=O)c(C(=O)[O-])cn1c23.[K+]`, for which, in the data set with Staphylococcus aureus [4] (setting [23]), the MIC worked out at 0.03 µg/mL. Further, the ED50 in the data set with Mus musculus [2] (setting [22]) was greater than 100 mg/kg.
As to `C[C@H]1CCc2c(N3CCC(O)CC3)c(F)cc3c(=O)c(C(=O)O)cn1c23`, the CC50 in data set [5] amounted to 2.5 µg/mL (≈ 6.94 µM); in [6], 5 µg/mL (≈ 13.9 µM).
Turning to `C[C@H]1CCc2c(N3CCC(O)CC3)c(F)cc3c(=O)c(C(=O)OC4CCN(C)CC4)cn1c23`, the values for the MIC in the data set on Staphylococcus aureus [1] and against Staphylococcus aureus [3] were 1 µg/mL (≈ 2.19 µM) and 2 µg/mL (≈ 4.37 µM), respectively. In the data set on Mus musculus [2] (setting [22]), the 50% effective dose (ED50) was greater than 100 mg/kg.
In the case of `C[C@H]1CCc2c(N3CCC(O)CC3)c(F)cc3c(=O)c(C(=O)O)cn1c23.N=C(N)NCCC[C@H](N)C(=O)O` (stereo in doubt; 19), the MIC with Staphylococcus aureus [4] (setting [23]) was 0.03 µg/mL. For the same compound, the ED50 with Mus musculus [2] (setting [22]) was determined as 90.3 mg/kg.
For `C[C@H]1CCc2c(N3CCC(O)CC3)c(F)cc3c(=O)c(C(=O)O)cn1c23.NCCCC[C@H](N)C(=O)O`, in that order: 0.03 µg/mL and greater than 100 mg/kg.
Take `C[C@H]1COc2c(N3CCN(C)CC3)c(F)cc3c(=O)c(C(=O)O)cn1c23.C[C@H]1COc2c(N3CCN(C)CC3)c(F)cc3c(=O)c(C(=O)O)cn1c23.O` [LEVOFLOXACIN]: the MIC in the data set with Enterococcus faecalis is 1 µg/mL; in the data set on Staphylococcus aureus [9], 8 µg/mL; in the data set on Streptococcus sanguinis, 2 µg/mL; against Staphylococcus aureus [10], 32 µg/mL; in the data set on Staphylococcus aureus [11], 16 µg/mL; with Staphylococcus aureus [12], 16 µg/mL. The MIC in data set [13] is 0.5 µg/mL; against Streptococcus pyogenes it was 1 µg/mL; in the data set on Staphylococcus aureus [14], 16 µg/mL; with Streptococcus agalactiae, 1 µg/mL; with Phocaeicola vulgatus, 1 µg/mL; against Klebsiella pneumoniae, 0.008 µg/mL. Also, the MIC against Staphylococcus aureus [16] came out at 1 µg/mL; in the data set with Staphylococcus aureus [17], 8 µg/mL; in [18], 0.12 µg/mL. In addition, the figures for the median effective dose (ED50) in the data set with Mus musculus [7], in the data set with Mus musculus [8] and in the data set on Mus musculus [15] were greater than 100 mg/kg, greater than 100 mg/kg and 5.92 mg/kg, respectively.
For the compound `C[C@H]1CCc2c(N3CCC(OC(=O)[C@H](CCC/N=C(\N)N[N+](=O)[O-])NC(=O)[C@@H](N)CCC/N=C(\N)N[N+](=O)[O-])CC3)c(F)cc3c(=O)c(C(=O)O)cn1c23.O=C(O)C(F)(F)F`, the MIC is 0.12 µg/mL against Staphylococcus aureus [1] and 0.5 µg/mL with Staphylococcus aureus [3]. Also, the 50% effective dose (ED50) with Mus musculus [2] (setting [22]) was greater than 75 mg/kg.
As a reminder, the pKa is the pH at which an ionisable group is half protonated. Low readings indicate a group that gives up its proton readily, high ones a group that holds its proton tightly. Regarding `CCn1cc(C(=O)O)c(=O)c2cc(F)c(N3CCN(C)CC3)cc21` [PEFLOXACIN], the pKa in the data set “physchem [19]” is 6.15; in “physchem [20]”, 9.97.
Turning to `C[C@H]1CCc2c(N3CCC(O)CC3)c(F)cc3c(=O)c(C(=O)OCCN4CCCCC4)cn1c23`, the MIC was determined as 0.25 µg/mL (≈ 0.53 µM) against Staphylococcus aureus [1] and 2 µg/mL (≈ 4.24 µM) against Staphylococcus aureus [3]. Also, in the data set on Mus musculus [2] (setting [22]), the ED50 was greater than 150 mg/kg.
`C[C@H]1CCc2c(N3CCC(O)CC3)c(F)cc3c(=O)c(C(=O)O)cn1c23.N=C(N)NCCC[C@H](N)C(=O)O` (stereo in doubt; 20): the MIC in the data set on Staphylococcus aureus [4] was 0.03 µg/mL. Moreover, in the data set with Mus musculus [2], the ED50 is greater than 100 mg/kg.
In the case of `C[C@H]1CCc2c(N3CCC(OC(=O)C(C)(C)C)CC3)c(F)cc3c(=O)c(C(=O)OCOC(=O)C(C)(C)C)cn1c23`, the MIC against Staphylococcus aureus [1] and against Staphylococcus aureus [3] was greater than 16 µg/mL throughout. Moreover, the median effective dose (ED50) in the data set on Mus musculus [2] (setting [22]) was greater than 150 mg/kg.
Regarding `CCCCCCCCCC(=O)N[C@@H](Cc1c[nH]c2ccccc12)C(=O)N[C@H](CC(N)=O)C(=O)N[C@@H](CC(=O)O)C(=O)N[C@@H]1C(=O)NCC(=O)N[C@@H](CCCN)C(=O)N[C@@H](CC(=O)O)C(=O)N[C@H](C)C(=O)N[C@@H](CC(=O)O)C(=O)NCC(=O)N[C@H](CO)C(=O)N[C@@H]([C@H](C)CC(=O)O)C(=O)N[C@@H](CC(=O)c2ccccc2N)C(=O)O[C@@H]1C`, the MIC in the data set with Staphylococcus aureus [9] amounted to 0.25 µg/mL (≈ 0.154 µM); in the data set on Staphylococcus aureus [10], 0.5 µg/mL (≈ 0.309 µM); with Staphylococcus aureus [11], 250 µg/mL (≈ 154 µM); against Staphylococcus aureus [12], 0.25 µg/mL (≈ 0.154 µM); with Staphylococcus aureus [14], 0.25 µg/mL (≈ 0.154 µM); against Staphylococcus aureus [21] it was 0.5 µg/mL (≈ 0.309 µM).
Take `C[C@H]1CCc2c(N3CCC(O)CC3)c(F)cc3c(=O)c(C(=O)OCCN4CCOCC4)cn1c23`: the MIC is 0.1 µg/mL (≈ 0.211 µM) against Staphylococcus aureus [1] and 0.25 µg/mL (≈ 0.528 µM) in the data set on Staphylococcus aureus [3]. The ED50 in the data set on Mus musculus [2] (setting [22]) was greater than 100 mg/kg.
